Measurements from paper PMC6407913, “DREADD Agonist 21 Is an Effective Agonist for Muscarinic-Based DREADDs in Vitro and in Vivo” (ACS Pharmacology & Translational Science, 2018).
Changes are numbered by the printed parent chain.

Columns and labels:
hM3Dq = molecular target: T1, hM3Dq (Homo sapiens, UniProt P20309, A239G/Y149C); test: Gq-mediated calcium release (FLIPR) assay; format: cell-based; details: CHO cells, mean ± SEM, read-out: pEC50 calcium mobilization (converted)
T1 construct: expressed in transfected cells
T1 sequence (P20309 whole entry Y149C/A239G): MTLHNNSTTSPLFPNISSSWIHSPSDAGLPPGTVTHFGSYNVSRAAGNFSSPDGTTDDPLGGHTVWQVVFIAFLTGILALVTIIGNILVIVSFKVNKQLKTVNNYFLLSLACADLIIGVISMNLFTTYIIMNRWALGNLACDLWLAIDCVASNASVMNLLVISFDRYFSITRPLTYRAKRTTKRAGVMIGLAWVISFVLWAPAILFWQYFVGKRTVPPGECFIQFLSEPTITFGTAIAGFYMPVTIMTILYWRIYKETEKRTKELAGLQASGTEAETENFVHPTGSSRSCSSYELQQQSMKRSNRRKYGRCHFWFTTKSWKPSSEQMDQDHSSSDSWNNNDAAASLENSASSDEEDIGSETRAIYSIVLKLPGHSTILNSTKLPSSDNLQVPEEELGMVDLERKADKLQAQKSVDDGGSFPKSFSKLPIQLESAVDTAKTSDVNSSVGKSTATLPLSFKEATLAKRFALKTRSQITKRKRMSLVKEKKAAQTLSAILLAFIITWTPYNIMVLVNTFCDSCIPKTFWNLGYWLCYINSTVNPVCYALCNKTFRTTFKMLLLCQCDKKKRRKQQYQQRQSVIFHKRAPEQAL

hM4 [1] = molecular target: T2, hM4 (Homo sapiens, UniProt P08173); test: whole-cell [3H]NMS competition binding; details: hM4, FlpIn CHO cells, mean (±SEM)
T2 construct: HA (hemagglutinin); expressed in transfected cells
T2 sequence (P08173 1-479): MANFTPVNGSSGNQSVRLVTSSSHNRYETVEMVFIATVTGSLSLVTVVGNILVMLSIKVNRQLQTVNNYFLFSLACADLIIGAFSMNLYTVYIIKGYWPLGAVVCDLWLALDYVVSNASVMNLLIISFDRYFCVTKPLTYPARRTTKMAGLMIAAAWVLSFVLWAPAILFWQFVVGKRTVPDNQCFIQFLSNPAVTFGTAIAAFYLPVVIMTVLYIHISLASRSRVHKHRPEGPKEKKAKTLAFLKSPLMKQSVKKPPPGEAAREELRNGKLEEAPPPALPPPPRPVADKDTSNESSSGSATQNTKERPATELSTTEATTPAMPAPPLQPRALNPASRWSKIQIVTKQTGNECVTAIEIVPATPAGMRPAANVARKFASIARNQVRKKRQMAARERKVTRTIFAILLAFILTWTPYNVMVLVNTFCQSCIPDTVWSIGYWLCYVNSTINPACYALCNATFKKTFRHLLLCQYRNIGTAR

[2] = test system: hM4Di expressed in PVH SIM1 neurons; test: food intake, hM4Di in PVH SIM1 neurons (Sim1-Cre mice)
D1 = D1 (Homo sapiens, UniProt P21728); test: cAMP Glo-sensor assay, antagonist mode; format: cell-based; details: human D1, HEK293T cells, vs dopamine
D1, sequence (P21728 whole entry): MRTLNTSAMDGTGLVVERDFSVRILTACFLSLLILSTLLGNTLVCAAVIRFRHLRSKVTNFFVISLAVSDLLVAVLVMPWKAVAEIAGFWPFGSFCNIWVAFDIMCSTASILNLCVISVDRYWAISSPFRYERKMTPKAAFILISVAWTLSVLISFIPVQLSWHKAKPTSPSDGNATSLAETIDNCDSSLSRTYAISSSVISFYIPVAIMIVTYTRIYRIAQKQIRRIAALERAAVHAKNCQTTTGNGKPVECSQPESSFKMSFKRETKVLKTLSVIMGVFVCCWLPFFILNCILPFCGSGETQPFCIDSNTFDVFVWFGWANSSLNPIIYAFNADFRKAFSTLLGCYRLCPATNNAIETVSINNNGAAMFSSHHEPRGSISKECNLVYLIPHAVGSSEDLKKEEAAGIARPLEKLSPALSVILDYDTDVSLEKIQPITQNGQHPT
Method: (§1) HEK293T cells in 10 cm plates were transfected with 4 μg of Glosensor and 4 μg of DNA encoding the human dopamine D1 receptor. The next day, cells were harvested and plated in polylysine-coated 384-well plates (Greiner) at a density of 20 000 cells/well in DMEM containing 1% dFBS. The next day, media was aspirated from each well and replaced with 20 μL of assay buffer containing 4 mM luciferin. Then, 10 μL of drugs were added 30 min later, and plates were read after 15 min.
In the absence of C21 ([B] = 0), this equation becomes the standard four-parameter logistic equation for fitting agonist concentration–response data.

hM1 [3] = molecular target: T3, hM1 (Homo sapiens, UniProt P11229); test: ERK1/2 phosphorylation (pERK1/2) assay; format: cell-based; details: wildtype hM1
T3 sequence (P11229 1-460): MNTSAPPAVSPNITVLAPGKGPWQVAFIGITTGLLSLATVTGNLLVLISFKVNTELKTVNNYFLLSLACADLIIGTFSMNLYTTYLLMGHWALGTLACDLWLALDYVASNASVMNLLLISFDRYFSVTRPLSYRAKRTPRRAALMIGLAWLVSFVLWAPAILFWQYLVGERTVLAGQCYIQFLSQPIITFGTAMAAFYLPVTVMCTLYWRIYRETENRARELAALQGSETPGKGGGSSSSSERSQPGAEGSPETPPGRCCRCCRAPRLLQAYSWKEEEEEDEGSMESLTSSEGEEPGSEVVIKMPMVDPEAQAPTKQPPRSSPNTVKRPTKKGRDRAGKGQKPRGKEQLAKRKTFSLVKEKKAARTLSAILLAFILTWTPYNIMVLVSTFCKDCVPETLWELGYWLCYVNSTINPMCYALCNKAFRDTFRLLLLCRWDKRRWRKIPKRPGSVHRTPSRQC

plasma protein binding = format: in vitro ADME
hM1 [4] = molecular target: T3, hM1; test: IP-One accumulation assay; format: cell-based; details: wildtype hM1
hM1Dq = molecular target: T4, hM1Dq (Homo sapiens, UniProt P11229, A196G/Y106C); test: ERK1/2 phosphorylation (pERK1/2) assay
T4 sequence (P11229 1-460 Y106C/A196G): T3 sequence (P11229 1-460) with Y106C, A196G

dopamine D2 receptors = dopamine D2 receptors (Homo sapiens, UniProt P14416); test: cAMP signaling concentration-response, agonist mode; format: cell-based
dopamine D2 receptors, sequence (P14416 whole entry): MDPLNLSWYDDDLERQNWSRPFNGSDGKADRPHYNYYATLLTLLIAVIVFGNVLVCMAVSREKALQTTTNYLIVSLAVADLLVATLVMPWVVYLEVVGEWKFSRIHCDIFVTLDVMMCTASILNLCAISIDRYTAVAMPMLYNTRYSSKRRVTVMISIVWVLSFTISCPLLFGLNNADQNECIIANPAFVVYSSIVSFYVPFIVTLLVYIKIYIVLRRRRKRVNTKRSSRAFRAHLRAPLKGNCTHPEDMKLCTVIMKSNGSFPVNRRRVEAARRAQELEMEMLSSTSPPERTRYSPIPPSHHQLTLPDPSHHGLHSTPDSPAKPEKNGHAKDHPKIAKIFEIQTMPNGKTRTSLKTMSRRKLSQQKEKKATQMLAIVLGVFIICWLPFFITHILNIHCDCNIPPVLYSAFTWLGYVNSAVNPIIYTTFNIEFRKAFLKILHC
Method: (§2) HEK293 T cells were used for transient transfections and Gi mediated cAMP production assays. Assays were performed according to published procedures (PMID25895059, PRESTO-Tango paper). More detailed assay protocols are available at NIMH PDSP Web site (http://pdspdb.unc.edu/pdspWeb/?site=assays).

dopamine D3 receptors = dopamine D3 receptors (Homo sapiens, UniProt P35462); test: as above; format: cell-based
dopamine D3 receptors, sequence (P35462 whole entry): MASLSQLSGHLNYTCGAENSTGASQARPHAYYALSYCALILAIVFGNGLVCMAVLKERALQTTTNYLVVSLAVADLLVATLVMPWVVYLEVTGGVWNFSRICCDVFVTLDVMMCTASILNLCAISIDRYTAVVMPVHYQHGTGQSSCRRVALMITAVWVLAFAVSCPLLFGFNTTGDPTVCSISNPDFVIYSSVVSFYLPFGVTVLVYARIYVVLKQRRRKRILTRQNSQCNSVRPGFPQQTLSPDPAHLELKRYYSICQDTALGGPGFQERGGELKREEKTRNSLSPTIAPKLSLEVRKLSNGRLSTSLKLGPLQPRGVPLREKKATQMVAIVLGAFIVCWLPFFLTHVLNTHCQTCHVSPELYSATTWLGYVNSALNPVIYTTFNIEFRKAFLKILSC
Method: as §2

histamine H4 receptors = molecular target: T5, histamine H4 receptors (Homo sapiens, UniProt Q9H3N8); test: as above; format: cell-based
T5 construct: expressed in transfected cells; host or cells: HEK293T, transient
T5 sequence (Q9H3N8 whole entry): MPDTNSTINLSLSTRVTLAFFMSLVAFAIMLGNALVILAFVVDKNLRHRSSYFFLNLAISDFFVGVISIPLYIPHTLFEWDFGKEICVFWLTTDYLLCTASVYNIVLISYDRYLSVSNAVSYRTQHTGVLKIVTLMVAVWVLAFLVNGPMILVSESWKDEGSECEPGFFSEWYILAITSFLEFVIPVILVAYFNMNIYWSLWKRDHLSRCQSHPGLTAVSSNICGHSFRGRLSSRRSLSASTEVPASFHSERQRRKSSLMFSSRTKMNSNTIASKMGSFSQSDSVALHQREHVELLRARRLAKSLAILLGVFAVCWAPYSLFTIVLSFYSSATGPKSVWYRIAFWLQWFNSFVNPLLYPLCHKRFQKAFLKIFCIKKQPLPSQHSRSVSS
Method: as §2

[5] = brain protein binding (brain homogenate); format: in vitro ADME, mouse
dopamine D1 receptors = dopamine D1 receptors (Homo sapiens, UniProt P21728); test: cAMP signaling concentration-response, agonist mode; format: cell-based
dopamine D1 receptors, sequence (P21728 whole entry): as the sequence (P21728 whole entry) above
Method: as §2, §1

hM4 [6] = molecular target: T2, hM4; test: inhibition of isoproterenol-stimulated cAMP production; format: cell-based; details: hM4, inhibition of isoproterenol elevated cAMP, mean (±SEM)
[7] = test system: hM3Dq-expressing lateral hypothalamic vGAT neurons; test: recordings from lateral hypothalamic vGAT neurons; format: cell-based

SMILES: c1ccc2c(c1)N=C(N1CCNCC1)c1ccccc1N2 [C21, 11-(1-piperazinyl)-5H-dibenzo[b,e][1,4]diazepine]
- EC50 (hM3Dq): 3.31 nM
- Ki (hM4 [1]): 3630 nM
- food intake, light cycle, sated mice ([2]; SIM1-Cre mice with AAV-DIO-hM4Di-mCherry, i.p.): substantially enhanced food consumption at comparable levels to CNO
- food intake in control mice ([2]; wildtype (non-Cre-expressing) littermates injected with AAV-DIO-hM4Di-mCherry): neither C21 nor CNO ligand influenced food intake
- antagonist activity, cAMP assay (D1): antagonism
- agonist activity in pERK1/2 assay (hM1 [3]): no agonist activity
- fraction unbound (plasma protein binding): 0.049
- agonist activity in IP1 assay (hM1 [4]): no agonist activity
- EC50 (hM1Dq): 288 nM
- agonist activity, follow-up concentration-response (cAMP) (dopamine D2 receptors): minimal activity
- agonist activity, follow-up concentration-response (cAMP) (dopamine D3 receptors): minimal activity
- agonist activity, follow-up concentration-response (cAMP) (histamine H4 receptors): minimal activity
- unbound in brain ([5]; brain): 4.9%
- fraction unbound ([5]; mouse, brain homogenate): 0.05
- agonist activity, follow-up concentration-response (cAMP) (dopamine D1 receptors): minimal activity
- EC50 (hM4 [6]): 1860 nM
- depolarization of neurons [7]: depolarization
